In test [1] the target is T1, TDP-431-260 binding to its canonical RNA sequence (UG6) (Homo sapiens, UniProt Q13148).
T1 construct: TDP-431-260-His (0.75 nM) and a single concentration of biotinylated-UG6 RNA (0.6 nM); made in house
The test can be described thus: Amplified luminescent proximity homogeneous alpha assay (ALPHA), RNA/TDP-43 disruption. Particulars: TDP-431-260-His 0.75 nM, biotinylated-UG6 RNA 0.6 nM; read-out: IC50 of disruption of TDP-431-260 / UG6 RNA interaction. How it is done: FIG. 5. RNA/TDP-43 disruption by nTRD22. A concentration-dependent curve was obtained for nTRD22's disruption of nucleic acid-TDP-431-260 interaction at a single RNA concentration (0.6 nM). Data is represented as mean±SEM (n=3).
To define which residues in the RRM domains were affected, the chemical-shift perturbations (CSP) induced by nTRD22 were mapped onto the known structure of TDP-43102-269 (PDB: 4bs2^15) using a color gradient (FIG. 4F,G). […] More precisely, L106/1107 and G148/V150 are part of RNP-2 and RNP-1 of RRM1 respectively, while C196 is part of RNP-2 in RRM2^16. Moreover, C173 is also shown to be affected in presence of RNA^15. […] It should be noted that in repeated experiments, different residues are shifted and although one representative spectrum is shown here (FIG. 4), the average shift from three experiments are also reported (FIG. 10). […] To test this, an amplified luminescent proximity homogeneous (alpha) assay recently developed for another compound targeting TDP-43^17 was used. TDP-431-260 binding to its canonical RNA sequence (UG6) was measured with ranging concentrations of compound and nTRD22 was able to inhibit 50% of the interaction with an IC50 of ˜100 μM (FIG. 5).
Amplified luminescent proximity homogeneous alpha assay (ALPHA). […]

The target in test [2] is T2, TDP-43102-269 (RRM region) (Homo sapiens, UniProt Q13148).
T2 construct: made in house
T2 sequence (Q13148 102-269 limits assumed): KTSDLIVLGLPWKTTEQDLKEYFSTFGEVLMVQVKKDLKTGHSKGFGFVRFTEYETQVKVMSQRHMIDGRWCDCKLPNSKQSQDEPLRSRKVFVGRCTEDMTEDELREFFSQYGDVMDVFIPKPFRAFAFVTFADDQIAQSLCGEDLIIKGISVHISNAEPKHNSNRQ
Nature of the test: 2D 15N-HSQC NMR of TDP43 102-269 (RRM region) with compound. It is filed as binding. Particulars: 4:1 molar ratio. The procedure: (§1) To further characterize where nTRD22 binds on TDP-43, perturbations were measured using a 2D ^15N-HSQC NMR with increasing concentrations of nTRD22, up to a 8:1 molar ratio of nTRD22:TDP-431-260 (FIG. 4). […] To determine if these shifts were due to direct binding of nTRD22 to TDP-43102-269 (RRM region), a 2D ^15HSQC-NMR on TDP43102-269 with nTRD22 at a 4:1 molar ratio was collected (FIG. 4D, E).
(§2) Heteronuclear Single Quantum Correlation-NMR (HSQC-NMR). NMR spectra were acquired in 40 mM HEPES pH 6.5, 500 mM NaCl, 4 mM DTT with 10% D20 at 100 μM protein concentrations using 5 mm Shigemi NMR tubes. NMR data were collected at 298 K on a Bruker Avance NEO 600 MHz and 800 MHz spectrometers with TCI-H&F/C/N probe. NMR processing and analysis was done using NMRpipe, NMRDraw and NMRFAM-Sparky. Transverse relaxation optimized spectroscopy (TROSY) was used for all HSQC experiments.

In test [3] the target is T3, TDP-431-260 (Homo sapiens, UniProt Q13148).
T3 construct: Human TDP-431-260 and TDP43102-269 were expressed as described in our previous studies; made in house
T3 sequence (Q13148 1-260 limits assumed): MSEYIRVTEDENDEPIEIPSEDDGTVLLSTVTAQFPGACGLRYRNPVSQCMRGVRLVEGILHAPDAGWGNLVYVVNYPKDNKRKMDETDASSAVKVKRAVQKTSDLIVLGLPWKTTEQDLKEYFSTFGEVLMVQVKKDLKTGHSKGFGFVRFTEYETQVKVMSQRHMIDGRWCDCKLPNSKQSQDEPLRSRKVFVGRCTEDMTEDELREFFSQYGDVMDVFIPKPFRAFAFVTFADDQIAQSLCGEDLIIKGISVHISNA
Nature of the test: Microscale thermophoresis (MST). The class given is binding. Particulars: NT-647 labeled TDP431-260, 0.03 μM-1 mM compound, mean±SD n=3; read-out: apparent Kd. The procedure:
FIG. 3. Modeling of binding and affinity of nTRD22 for TDP-43. A. Structure of N-(2-(3-hydroxypiperidin-1-yl)ethyl)-5-((3-(trifluoromethyl)phenoxy)methyl)isoxazole-3-carboxamide (nTRD22). B. 2D representation of nTRD22 binding pocket in TDP-43 NTD. C. MST values from thermographs of NT-647 labeled TDP431-260 in presence of increasing concentrations (0.03 μM-1 mM) of nTRD22 were used to determine dissociation constant for binding of nTRD22 to TDP431-260. […] Data is presented as mean±SD (n=3).
In-silico docking of nTRD22 predicted interactions with Q3, Y43, S48, G59, and A66 (FIG. 3A). ^1H-NMR of nTRD22 was used to evaluate the on-resonance energy transfer from STD-NMR of nTRD22 with TDP-431-260. The peaks seen in the STD-NMR spectrum were in the region of the benzyl group (ii, 6.9-7.2 ppm) (FIG. 2C) confirming the […] interaction of the benzene group of nTRD22 with Tyr43, predicted by virtual screening.
Microscale Thermophoresis (MST). Microscale thermophoresis experiments were performed using a NanoTemper Monolith Instrument (NT.115), similarly to Frangois-Moutal, L.; et al., ACS Chem. Biol. 2019, 14, 2006-2013.
For orientation: MST reads how a fluorescent partner responds to local heating, with and without ligand.

The subject of test [4] is EGFP. Nature of the test: EGFP control-transfected rodent primary cortical neurons, fluorescence. Particulars: 5 to 100 μM. It is filed as cell-based, rat. How it is done:
(§3) FIG. 6. nTRD22 effect on primary cortical neurons. Confocal images of rodent primary cortical neurons with transfected TDP43-EGFP with A. DMSO, or B. […] nTRD22. Quantitation of GFP signal in TDP-43-EGFP (C) or EGFP (D) transfected primary neurons treated with increasing concentration of nTRD22 or DMSO. Data is presented as mean±SEM (n≥183 neurons from 8 technical and 3 biological replicates). Statistical difference was assessed by a Kruskal-Wallis test (*** p<0.001; **p=0.01).
(§4) To test this, TDP-43 fused to enhanced green fluorescent protein (TDP43-EGFP) was expressed in rodent primary cortical neurons, applied nTRD22 at concentrations ranging from 5 to 100 μM, and imaged GFP positive cells by automated fluorescence microscopy^1819. […] No changes in the fluorescence of control cells transfected with EGFP was observed (FIG. 6D).
(§5) Cell culture and transfection. […]
(§6) Fluorescence microscopy. […]
(§7) Image analysis. Custom ImageJ/Fiji macros and Python scripts (described in PMC6050042) were used to identify neurons and draw regions of interest (ROIs) based upon size, morphology, and fluorescence intensity. Additional scripts were used to identify and draw regions of interest (ROIs) surrounding each cell, and measure fluorescence intensity within individual ROIs. […]

Test [5] has as its system Drosophila overexpressing TDP-43. Nature of the test: Climbing (negative geotaxis) assay in Drosophila model of ALS overexpressing TDP-43. The class given is in vivo. The settings on record: fly food supplemented with 50 μM.
Test [6] addresses T3, TDP-431-260. The test can be described thus: STD-NMR screening of compound binding to TDP-43 1-260. The settings on record: 500 μM compound, 5 μM protein. The procedure:
(§8) FIG. 2. STD-NMR screening for compounds. A. Two different constructs were used for STD-NMR screening. 1D ^1H STD NMR showing on-resonance difference spectrum of 500 μM of compounds nTRD09-16 (B) or nTRD19-28 (C) with 5 μM TDP431-260. D. Positive hits from the first round of STD-NMR screening were tested against TDP43102-269 in the same conditions. Asterisks indicate positive signal.
(§9) Saturation transfer difference nuclear magnetic resonance (STD-NMR) spectroscopy was then used to screen the binding of the compounds to TDP-431-260. As a negative control, binding to TDP43102-269 lacking the NTD was also determined (FIG. 2A). […]
(§10) Saturation Transfer Difference Nuclear Magnetic Resonance (STD-NMR). Spectroscopy for small molecule binding. 1D ^1H STD-NMR was performed exactly as previously described (see, Frangois-Moutal, L.; et al., ACS Chem. Biol. 2019, 14, 2006-2013; Frangois-Moutal, L.; et al., ACS Chem. Biol. 2018, 13, 3000-3010).

Test [7] has as its target T4, TDP43102-269 (Homo sapiens, UniProt Q13148).
T4 construct: made in house
Nature of the test: STD-NMR negative control on TDP43 102-269 lacking the NTD. Particulars: same conditions, negative control construct. It is filed as binding. The procedure:
as §8, §9, §10

In test [8] the target is T5, TDP43-EGFP (Homo sapiens, UniProt Q13148).
T5 construct: expressed in transfected cells; host or cells: primary cortical neurons from embryonic day 20-21 Long Evans rat pups
T5 sequence (Q13148 whole entry): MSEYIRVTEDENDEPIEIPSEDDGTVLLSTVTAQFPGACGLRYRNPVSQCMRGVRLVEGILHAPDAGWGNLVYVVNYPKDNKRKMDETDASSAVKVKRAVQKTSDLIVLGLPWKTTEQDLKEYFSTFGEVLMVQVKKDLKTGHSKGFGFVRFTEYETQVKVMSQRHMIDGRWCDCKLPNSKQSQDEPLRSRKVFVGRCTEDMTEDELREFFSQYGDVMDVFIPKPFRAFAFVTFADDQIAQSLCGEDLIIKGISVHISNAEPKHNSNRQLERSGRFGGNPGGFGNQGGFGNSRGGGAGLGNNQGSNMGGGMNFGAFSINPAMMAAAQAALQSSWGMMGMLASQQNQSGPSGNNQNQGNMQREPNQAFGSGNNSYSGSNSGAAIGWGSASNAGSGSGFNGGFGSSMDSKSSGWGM
The test can be described thus: TDP43-EGFP in rodent primary cortical neurons, automated fluorescence microscopy. The class given is cell-based, rat. Particulars: 5 to 100 μM. How it is done: as §3, §4, §5, §6, §7

Test [9] concerns the target T3, TDP-431-260. The test can be described thus: 2D 15N-HSQC NMR of TDP-43 1-260 with compound. It is filed as binding. How it is done: 2D ^15N-HSQC NMR spectrum of each positive hit was tested to further define the binding sites of the small molecule interactions with TDP-43 (FIG. 9). Using TDP-431-260, small molecules were added at a 4:1 molar ratio.
as §1, §2

These results are taken from patent US20230250094A1, “SMALL MOLECULE INHIBITORS OF TDP-43 ACTIVITY AND USES THEREOF” (Arizona Board of Regents on Behalf of the University of …, priority 2020, published 2023).

Entries after “also recorded” stand apart in the source; their conditions may differ.

T4 sequence (Q13148 102-269): as the sequence (Q13148 102-269 limits assumed) above
T1 sequence (Q13148 1-260 limits assumed): as the sequence (Q13148 1-260 limits assumed) above

As to `O=C(NCCN1CCCC(O)C1)c1cc(COc2cccc(C(F)(F)F)c2)on1` (stereo not drawn) [nTRD22, N-(2-(3-hydroxypiperidin-1-yl)ethyl)-5-((3-(trifluoromethyl)phenoxy)methyl)isoxazole-3-carboxamide], the IC50 in test [1] was roughly 100 µM. Moreover, in [2], the “2D 15N-HSQC chemical shifts on TDP43102-269” value is “No shifts were observed”. The Kd in [3] was 145 ± 3 µM. For the same compound, the “fluorescence of control cells transfected with EGFP” value in [4] is given as “No changes”. For the same compound, in test [5] (versus DMSO 0.05%), the “climbing / motor performance in young (5-6 dpe) and aged (19-20 dpe) flies” value is “rescue effect was increased in aged flies; also recorded: increased motor performance”. Moreover, the “climbing / motor performance versus DMSO treated or naive flies” value in test [5] (n=60) was “significantly able to rescue climbing defects; also recorded: increased motor performance”. In addition, the “STD-NMR binding to TDP-431-260” value in test [6] is “positive hits”. For the same compound, the “STD-NMR binding to TDP43102-269 (lacking NTD)” value in test [7] is “did not”. Besides, in [8], the “TDP43-EGFP steady state levels (GFP signal)” value is “dose-dependent reduction” and the “intranuclear TDP43-EGFP droplet-like structures” value is listed as “formation of intranuclear TDP43-EGFP droplet-like structures”. Also, the “2D 15N-HSQC: aggregation / chemical shift perturbations” value in [9] (compound:protein 4:1 molar ratio, 100 μM protein) is recorded as “no protein aggregation with visible chemical shift perturbations”. Besides, the “2D 15N-HSQC chemical shifts on titration” value in test [9] (increasing concentrations up to 8:1 molar ratio nTRD22:TDP-431-260) is “the majority of them occurring in the RRM region of the protein”.
